≈ marks a conversion by molar mass, not a printed value. Where two headings read alike, the source gives them in different places. Marks after values point to notes of the source that are not given here. Positions of bridges follow the written chain, without caps; N, C: chain ends. Non-standard residues stand in square brackets, D forms with d. Residues, ends and D or L forms follow the SMILES beside them. Dab = NCC[C@H](N)C(=O)O
Tests used:
[1] = test system: B. cepacia (ATCC 25416); assay: Antibacterial activity (MIC), alone and with colistin; format: cell-based, Burkholderia cepacia
[2] = test system: E. coli drug resistant clinical isolates; assay: Antibacterial activity (MIC) against drug resistant clinical isolates, alone and with PMBN; format: cell-based; conditions: for MIC: Escherichia coli, read-out: MIC Compound alone
[3] = test system: P. aeruginosa drug resistant clinical isolates; assay: as above; format: cell-based; conditions: for MIC: Pseudomonas aeruginosa, read-out: MIC Compound alone
[4] = test system: A. baumannii drug resistant clinical isolates; assay: as above; format: cell-based; conditions: for MIC: Acinetobacter baumannii, read-out: MIC Compound alone
[5] = test system: E. cloaceae drug resistant clinical isolates; assay: as above; format: cell-based; conditions: for MIC: read-out: MIC Compound alone
[6] = test system: P. aeruginosa (MMX 1497) colistin-resistant strain; assay: Antibacterial activity (MIC) against colistin-resistant strains, alone and with colistin; format: cell-based
[7] = test system: K. pneumonia colistin-resistant strains; assay: microbe, parasite or virus in culture; format: cell-based; conditions: for MIC: Klebsiella pneumoniae
[8] = test system: E. coli colistin-resistant strains; assay: microbe, parasite or virus in culture; format: cell-based; conditions: for MIC: Escherichia coli
[9] = test system: A. baumannii colistin-resistant strains; assay: microbe, parasite or virus in culture; format: cell-based; conditions: for MIC: Acinetobacter baumannii
[10] = test system: E. coli (ATCC 25922)
[11] = test system: A. baumannii (ATCC 19606)
[12] = test system: P. aeruginosa (ATCC 27853)
[13] = test system: E. cloaceae (ATCC 13047)
[14] = test system: F. philomiragia (ATCC 25015); conditions: Table 9
[15] = test system: E. coli (ATCC 25922); assay: microbe, parasite or virus in culture; conditions: Escherichia coli
[16] = test system: A. baumannii (ATCC 19606); assay: microbe, parasite or virus in culture; conditions: Acinetobacter baumannii, ATCC19606, read-out: MIC Compound alone
[17] = test system: P. aeruginosa (ATCC 27853); assay: microbe, parasite or virus in culture; conditions: Pseudomonas aeruginosa, ATCC27853, read-out: MIC Compound alone
[18] = test system: E. cloaceae (ATCC 13047); assay: microbe, parasite or virus in culture; conditions: Enterobacter cloacae, ATCC13047, read-out: MIC Compound alone
[19] = test system: F. philomiragia (ATCC 25015); assay: microbe, parasite or virus in culture; conditions: Francisella philomiragia, ATCC25015, read-out: MIC Compound alone
[20] = test system: E. coli (NDM-1; CTX-M15); assay: Septicaemia infection model, survival; conditions: two doses

CCNC(=O)Nc1nc2cc(-c3cnc([C@H](C)O)nc3)cc(-c3ccccn3)c2s1 [Example 23 (WO2013/138860), 1-ethyl-3-[5-[2-[(1S)-1-hydroxyethyl]pyrimidin-5-yl]-7-(2-pyridyl)-1,3-benzothiazol-2-yl]urea]
MIC ([1]; Burkholderia cepacia, ATCC25416, read-out: MIC Compound alone): > 64 µg/mL
MIC of Compound (μg/ml) in the presence of colistin (2 μg/ml) ([1]; Table 8, colistin non-inhibitory): 8 µg/mL
MIC of Compound (μg/ml) in the presence of PMBN (128 μg/ml) ([2]; E. coli (MMX 1312)): ≦0.008 μg/ml
MIC of Compound (μg/ml) in the presence of PMBN (128 μg/ml) ([2]; E. coli (MMX 2232)): ≦0.008 μg/ml
MIC ([2]; E. coli (MMX 1312)): > 64 µg/mL
MIC ([2]; E. coli (MMX 2232)): > 64 µg/mL
MIC of Compound (μg/ml) in the presence of PMBN (128 μg/ml) ([3]; P. aeruginosa (MMX3007)): 0.25 µg/mL
MIC of Compound (μg/ml) in the presence of PMBN (128 μg/ml) ([3]; P. aeruginosa (MMX3022)): 0.25 µg/mL
MIC of Compound (μg/ml) in the presence of PMBN (128 μg/ml) ([3]; P. aeruginosa (MMX3025)): 0.12 µg/mL
MIC of Compound (μg/ml) in the presence of PMBN (128 μg/ml) ([3]; P. aeruginosa (NCTC13437)): 0.25 µg/mL
MIC ([3]; NCTC13437, P. aeruginosa (NCTC13437)): > 64 µg/mL
MIC ([3]; P. aeruginosa (MMX3007)): > 64 µg/mL
MIC ([3]; P. aeruginosa (MMX3022)): > 64 µg/mL
MIC ([3]; P. aeruginosa (MMX3025)): > 64 µg/mL
MIC of Compound (μg/ml) in the presence of PMBN (128 μg/ml) ([4]; A. baumannii (MMX 4454)): 0.5 µg/mL
MIC of Compound (μg/ml) in the presence of PMBN (128 μg/ml) ([4]; A. baumannii (MMX 6331)): 0.25 µg/mL
MIC ([4]; A. baumannii (MMX 4454)): 2 µg/mL (≈ 4.76 µM)
MIC ([4]; A. baumannii (MMX 6331)): > 64 µg/mL
MIC of Compound (μg/ml) in the presence of PMBN (128 μg/ml) ([5]; E. cloaceae (MMX 6087)): 2 µg/mL
MIC ([5]; E. cloaceae (MMX 6087)): > 64 µg/mL
MIC of Compound (μg/ml) in the presence of PMBN (128 μg/ml) ([5]; E. cloaceae (MMX 6093)): 0.5 µg/mL
MIC ([5]; E. cloaceae (MMX 6093)): > 16 µg/mL
MIC of Compound (μg/ml) in the presence of PMBN (128 μg/ml) ([5]; E. cloaceae (MMX 6095)): 8 µg/mL
MIC ([5]; E. cloaceae (MMX 6095)): > 64 µg/mL
MIC of Compound (μg/ml) in the presence of PMBN (128 μg/ml) ([5]; E. cloaceae (MMX 6304)): 1 µg/mL
MIC ([5]; E. cloaceae (MMX 6304)): > 16 µg/mL
MIC of Compound (μg/ml) in the presence of colistin (2 μg/ml) [6]: 4 µg/mL
MIC ([6]; Pseudomonas aeruginosa, read-out: MIC Compound alone): > 64 µg/mL
MIC of Compound (μg/ml) in the presence of colistin (2 μg/ml) ([7]; K. pneumonia colistin-resistant strain #1): 0.25 µg/mL
MIC of Compound (μg/ml) in the presence of colistin (2 μg/ml) ([7]; K. pneumonia colistin-resistant strain #2): 0.25 µg/mL
MIC of Compound (μg/ml) in the presence of colistin (2 μg/ml) ([7]; K. pneumonia colistin-resistant strain #3): 0.12 µg/mL
MIC ([7]; read-out: MIC Compound alone, K. pneumonia colistin-resistant strain #1): 1 µg/mL (≈ 2.38 µM)
MIC ([7]; read-out: MIC Compound alone, K. pneumonia colistin-resistant strain #2): 1 µg/mL (≈ 2.38 µM)
MIC ([7]; read-out: MIC Compound alone, K. pneumonia colistin-resistant strain #3): 2 µg/mL (≈ 4.76 µM)
MIC of Compound (μg/ml) in the presence of colistin (2 μg/ml) ([8]; E. coli colistin-resistant strain #1): 2 µg/mL
MIC of Compound (μg/ml) in the presence of colistin (2 μg/ml) ([8]; E. coli colistin-resistant strain #2): 1 µg/mL
MIC of Compound (μg/ml) in the presence of colistin (2 μg/ml) ([8]; E. coli colistin-resistant strain #3): 1 µg/mL
MIC of Compound (μg/ml) in the presence of colistin (2 μg/ml) ([8]; E. coli colistin-resistant strain #26): 1 µg/mL
MIC of Compound (μg/ml) in the presence of colistin (2 μg/ml) ([8]; E. coli colistin-resistant strain #43): 1 µg/mL
MIC ([8]; read-out: MIC Compound alone, E. coli colistin-resistant strain #1): 4 µg/mL (≈ 9.51 µM)
MIC ([8]; read-out: MIC Compound alone, E. coli colistin-resistant strain #2): 4 µg/mL (≈ 9.51 µM)
MIC ([8]; read-out: MIC Compound alone, E. coli colistin-resistant strain #3): 8 µg/mL (≈ 19 µM)
MIC ([8]; read-out: MIC Compound alone, E. coli colistin-resistant strain #26): 8 µg/mL (≈ 19 µM)
MIC ([8]; read-out: MIC Compound alone, E. coli colistin-resistant strain #43): 4 µg/mL (≈ 9.51 µM)
MIC of Compound (μg/ml) in the presence of colistin (2 μg/ml) ([9]; A. baumannii colistin-resistant strain #1): 0.015 µg/mL
MIC of Compound (μg/ml) in the presence of colistin (2 μg/ml) ([9]; A. baumannii colistin-resistant strain #2): 0.03 µg/mL
MIC of Compound (μg/ml) in the presence of colistin (2 μg/ml) ([9]; A. baumannii colistin-resistant strain #3): <=0.008 μg/ml
MIC ([9]; read-out: MIC Compound alone, A. baumannii colistin-resistant strain #1): ≤ 0.03 µg/mL
MIC ([9]; read-out: MIC Compound alone, A. baumannii colistin-resistant strain #2): 4 µg/mL (≈ 9.51 µM)
MIC ([9]; read-out: MIC Compound alone, A. baumannii colistin-resistant strain #3): ≤ 0.03 µg/mL
MIC of Compound (μg/ml) in the presence of PMBN (128 μg/ml) ([10]; Table 1, (b) No effect): 0.06 µg/mL
MIC of Compound (μg/ml) in the presence of Colistin (1 μg/ml) ([10]; Table 2, colistin sub-inhibitory): 1 µg/mL
MIC of Compound (μg/ml) in the presence of PMB (0.5 μg/ml) ([10]; Table 3, PMB sub-inhibitory): 1 µg/mL
MIC of Compound (μg/ml) in the presence of PMBN (32 μg/ml) ([10]; Table 12, (b) No significant effect): 0.12 µg/mL
MIC of Compound (μg/ml) in the presence of PMBN (128 μg/ml) ([11]; Table 4): 0.25 µg/mL
MIC of Compound (μg/ml) in the presence of PMBN (128 μg/ml) ([12]; Table 5): <=0.008 μg/ml
MIC of Compound (μg/ml) in the presence of PMBN (128 μg/ml) ([13]; Table 6): 0.5 µg/mL
MIC Compound alone ([13]; Table 7): >64 µg/mL
MIC of Compound (μg/ml) in the presence of colistin (2 μg/ml) ([13]; Table 7, colistin non-inhibitory): <=0.12 μg/ml
MIC of Compound (μg/ml) in the presence of PMBN (32 μg/ml) [14]: 2 µg/mL
MIC ([15]; ATCC25922, read-out: MIC Compound alone, Table 1): 4 µg/mL (≈ 9.51 µM)
MIC ([15]; ATCC25922, read-out: MIC Compound alone, Table 2): 4 µg/mL (≈ 9.51 µM)
MIC ([15]; ATCC25922, read-out: MIC Compound alone, Table 3): 4 µg/mL (≈ 9.51 µM)
MIC ([15]; ATCC25922, read-out: MIC Compound alone, Table 12): > 2 µg/mL
MIC [16]: 4 µg/mL (≈ 9.51 µM)
MIC [17]: > 64 µg/mL
MIC [18]: > 64 µg/mL
MIC [19]: > 16 µg/mL

CCNC(=O)Nc1nc2cc(-c3cnc([C@@H](C)OP(=O)(O)O)nc3)cc(-c3ccccn3)c2s1 [Example 152 of WO2013/138860, [(1R)-1-[5-[2-(ethylcarbamoylamino)-7-(2-pyridyl)-1,3-benzothiazol-5-yl]pyrimidin-2-yl]ethyl] dihydrogen phosphate]
survival at the end of 5 days ([20]; 100 mg/kg IV alone): No mice survived

CC(C)C[C@@H]1NC(=O)[C@@H](Cc2ccccc2)NC(=O)[C@H](CCN)NC(=O)[C@@H](NC(=O)[C@H](CCN)NC(=O)[C@@H](N)[C@@H](C)O)CCNC(=O)[C@H]([C@@H](C)O)NC(=O)[C@H](CCN)NC(=O)[C@H](CCN)NC1=O [PMBN, Polymyxin B nonapeptide, reference compound] (H-T[Dab][Dab][Dab][dF]L[Dab][Dab]T; lactam 3-C (inferred); N-terminus assumed)
MIC PMBN alone ([10]; ATCC 25922): >128^(a) μg/ml
MIC PMBN alone ([11]; ATCC 19606): >128^(a) μg/ml
MIC PMBN alone ([12]; ATCC 27853): >128^(a) μg/ml
MIC PMBN alone ([13]; ATCC 13047): >128^(a) μg/ml
MIC PMBN alone ([14]; (a) No measurable antibacterial activity): >32^(a) μg/ml
survival at the end of 5 days ([20]; PMBN 50 mg/kg SC alone): No mice survived

Source: patent US20170007615A1, “Antibacterial Compounds” (priority 2014, published 2017)
